Consider 18 compounds from patent US20230374067A1, “NOVEL PEPTOIDS AND USE THEREOF FOR PREVENTING OR TREATING CHRONIC PAIN” (Université Clermont Auvergne, priority 2020, published 2023).

The subject of data set [1] is OIPN mice (oxaliplatin-induced neuropathy model mice). Put plainly: Oxaliplatin-induced acute neuropathy in mice, paw immersion test (cold hypersensitivity). It is filed as in vivo. As for the experimental part:
(§1) Immersion test: The tail or paw was immersed in a water bath set at 10° C. or 46° C. until shrinkage was observed (cut-off time: 30 s). The average of two separate determinations of withdrawal latency was calculated (Janssen, Niemegeers & Dony, 1963).
Oxaliplatin-induced acute neuropathy in mice: Mice were injected intraperitoneally (i.p.) with 6 mg/kg oxaliplatin dissolved in 5% glucose directly after the first behavioral assessment. At 90 h after drug administration, corresponding to the time required to reach peak hyperalgesia (Descoeur et al., 2011), a second assessment of cold sensitivity and mechanical sensitivity was performed.

Data set [2] addresses T1, interaction between HCN and the TRIP8b tail (Homo sapiens, UniProt Q8IYB4).
T1 sequence (Q8IYB4 265-626 limits assumed): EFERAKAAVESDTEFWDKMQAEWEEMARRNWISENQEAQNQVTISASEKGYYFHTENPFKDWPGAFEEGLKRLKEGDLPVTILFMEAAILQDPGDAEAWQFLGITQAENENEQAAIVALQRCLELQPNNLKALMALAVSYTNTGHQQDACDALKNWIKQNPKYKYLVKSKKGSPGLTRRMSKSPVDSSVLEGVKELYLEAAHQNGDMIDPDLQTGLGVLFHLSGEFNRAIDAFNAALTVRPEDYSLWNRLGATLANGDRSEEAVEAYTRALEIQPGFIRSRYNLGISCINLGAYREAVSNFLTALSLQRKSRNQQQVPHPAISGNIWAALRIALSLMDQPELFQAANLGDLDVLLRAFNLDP
Put plainly: Fluorescence polarization assay, disruption of TRIP8b-HCN interaction. Conditions: compared with NUCC5953. Type of data set: binding. An excerpt:
Fluorescence polarization assay: a fluorescence polarization (FP) based assay was used to identify compounds capable of disrupting the interaction between HCN and the TRIP8b tail, as published (Han et al., 2015).
Background: Fluorescence polarisation rises when a labelled molecule tumbles more slowly, as on binding a larger partner.

In a further data set the test system is neuropathic rats. Put plainly: Spinal nerve ligation induced neuropathy in rats, paw immersion test. Type of data set: in vivo. Particulars: neuropathy induced by traumatic nerve injury, intrathecal, 5 μg. The method, then:
as §1
Spinal nerve ligation induced neuropathy in rats: According to the procedure of Kim and Chung (1992), rats were placed in the […] position and anesthetized with 10 mg/kg xylazine and 75 mg/kg ketamine (i.p). The fur on the left side of the spine was then shaved to expose the skin. The skin was cut parallel to the spine and the paravertebral muscles were separated. The L5 transverse apophysis was removed until the L5 spinal nerve was exposed. The L5 nerve was isolated and ligated with silk thread. Finally, the muscle and skin incisions were sutured and the wound was disinfected with iodophor and 75% ethyl alcohol. In the sham group, the rats underwent the same surgical procedure without the nerve ligation.

Another data set deals with mice. Description: Rotarod test (locomotor activity). Type of data set: in vivo. Conditions: administered subcutaneously (2.5, 5, or 10 mg/kg, s.c.). As for the experimental part:
Rotarod Test: For the Rotarod test (Bioseb), the animals were first habituated to remain on the stationary cylinder for 10 min before switching to another 10 min with a rotational speed of 4 rpm. The animals were given the drug immediately after training and the test was performed 30 min later. The test consisted of measuring the latency to fall of the animals as the rotation increased from 4 to 40 rpm linearly over 5 min. The average of the two closest values over 3 trials was calculated.
(In general: The rotarod test checks motor coordination on a turning rod.)

The next data set deals with PTX rats. Put plainly: Paclitaxel-induced neuropathy in rats (mechanical thresholds, paw immersion). It is filed as in vivo. Conditions: rat model of paclitaxel-induced neuropathy, i.t., 0.2, 1 or 5 μg. As for the experimental part: as §1
Paw pressure test in rats: Rats were subjected to the paw pressure test previously described by Randall and Selitto (1957). Nociceptive thresholds, expressed in grams, were measured with a Ugo Basile analgesic meter (Apelex, probe tip diameter 1 mm, weight 30 g) by applying increasing pressure to the right hind paw of the rats until a pain sign (vocalization threshold) was obtained (cut-off was 750 g). Before the treatments, the rats were habituated to the test by handling them without subjecting them to paw pressure. Then, after obtaining two consecutive stable vocalization threshold values, the treatment effects were evaluated after 15, 30, 45, 60, 90, and 120 min. Results are expressed as vocalization thresholds, in grams. […] Data were analyzed by a 2-way ANOVA followed by a Bonferroni test, when the time course of the effects was studied. A one-way ANOVA followed by a Student Newman-Keuls test was used to analyze the effect of the different treatments determined by the CSAs. The level of statistical significance was set at p<0.05. […]

Square brackets hold non-standard residues; d marks the D form. Peptide text beside a SMILES is read from it. * marks the point of attachment. Gly(N-CH2CH2OH) = O=C(O)CNCCO; Nleu = CC(C)CNCC(=O)O; Bz = O=C(c1ccccc1)*

As for `CC(C)C[C@H](NC(=O)CCN(CCO)C(=O)CN(CCO)C(=O)CN(CC(C)C)C(=O)c1ccc([N+](=O)[O-])cc1)C(=O)O` [LF108], in data set [1] (mouse, in vivo), the analgesic effect result was “demonstrated an analgesic effect”. With `Cc1ccc(C(=O)N(CC(=O)N(CCO)CC(=O)N(CCO)CCC(=O)N[C@@H](CC(C)C)C(=O)O)CC(C)C)cc1` [LF126], the analgesic effect result in data set [1] (mouse, in vivo) is recorded as “demonstrated an analgesic effect”.

For `CC(C)C[C@H](NC(=O)CCN(CC(N)=O)C(=O)CN(CCO)C(=O)CN(CC(C)C)C(=O)c1ccccc1)C(=O)O` [LF176], the analgesic effect entry in data set [1] (mouse, in vivo) was “demonstrated an analgesic effect”. For `CC(C)C[C@H](NC(=O)CCN(CCO)C(=O)CN(CCO)C(=O)CN(CC(C)C)C(=O)c1ccc(C(F)(F)F)cc1)C(=O)O` [LF188], the analgesic effect entry in data set [1] (mouse, in vivo) is “demonstrated an analgesic effect”.

For `CCCCN(CC(=O)N(CCO)CC(=O)N(CCO)CCC(=O)N[C@@H](CC(C)C)C(=O)O)C(=O)c1ccccc1` [LF222], in data set [1] (mouse, in vivo), the analgesic effect entry is “demonstrated an analgesic effect”. `CC(C)C[C@H](NC(=O)CCN(CCO)C(=O)CN(CCO)C(=O)CN(Cc1ccccc1)C(=O)C(C)C)C(=O)O` [LF239]: the analgesic effect entry in data set [1] (mouse, in vivo) is given as “demonstrated an analgesic effect”. With `CC(C)C[C@H](NC(=O)CCN(CCO)C(=O)CN(CCO)C(=O)CN(CC(C)C)C(=O)c1ccc(F)cc1)C(=O)O` [LF261], in data set [1] (mouse, in vivo), the analgesic effect entry is “demonstrated an analgesic effect”. With `CC(C)C[C@H](NC(=O)CCN(CCO)C(=O)CN(CCO)C(=O)CN(C(=O)c1ccccc1)C(C)C)C(=O)O` [LF295], the analgesic effect entry in data set [1] (mouse, in vivo) is “demonstrated an analgesic effect”. The same measure, in the same setting: under `CC(C)C[C@H](NC(=O)CCN(CCO)C(=O)CN(CCO)C(=O)CN(CC(C)(C)C)C(=O)c1ccccc1)C(=O)O` [LF306] stands “demonstrated an analgesic effect”; under `CC(C)C[C@H](NC(=O)CCN(CCO)C(=O)CN(CCN)C(=O)CN(CC(C)C)C(=O)c1ccccc1)C(=O)O` [LF329], “demonstrated an analgesic effect”.

For the compound `CC(=O)N(CCO)CC(=O)N(CCO)CCC(=O)N[C@@H](CC(C)C)C(=O)O` [LF369], the analgesic effect entry in data set [1] (OIPN mice, 5 μg, i.t.) is given as “demonstrated an analgesic effect”. For the compound `Cc1cccc(C(=O)N(CC(=O)N(CCO)CC(=O)N(CCO)CCC(=O)N[C@@H](CC(C)C)C(=O)O)CC(C)C)c1` [LF400], the analgesic effect entry in data set [1] (mouse, in vivo) is reported as “demonstrated an analgesic effect”. With `CC(C)C[C@H](NC(=O)CCN(CCO)C(=O)CN(CCO)C(=O)CN(Cc1ccccc1)C(=O)c1ccccc1)C(=O)O` [MP208], the analgesic effect entry in data set [1] (mouse, in vivo) was “demonstrated an analgesic effect”.

Take `CC(C)C[C@H](NC(=O)CCN(CCO)C(=O)CN(CCO)C(=O)CN(CC(C)C)C(=O)Cc1ccccc1)C(=O)O` [MP341]: the analgesic effect result in data set [1] (OIPN mice, 10 mg/kg, s.c.) is “demonstrated an analgesic effect”. On the same count and under the same terms, under `CC(C)C[C@H](NC(=O)CCN(CCCO)C(=O)CN(CCO)C(=O)CN(CC(C)C)C(=O)c1ccccc1)C(=O)O` [MP354] stands “demonstrated an analgesic effect”; under `CC(C)C[C@H](NC(=O)CCN(CCO)C(=O)CN(CCCO)C(=O)CN(CC(C)C)C(=O)c1ccccc1)C(=O)O` [MP376], “demonstrated an analgesic effect”. On to `CC(C)C[C@H](NC(=O)CN(CCO)C(=O)CN(CCO)C(=O)CN(CC(C)C)C(=O)c1ccccc1)C(=O)O` [MP405] (Bz-[Nleu][Gly(N-CH2CH2OH)][Gly(N-CH2CH2OH)]L-OH), for which the analgesic effect result in data set [1] (mouse, in vivo) was “demonstrated an analgesic effect”. Regarding `CC(C)C[C@H](NC(=O)CCN(CCO)C(=O)CN(CCO)C(=O)CN(CC(C)C)C(=O)c1ccccc1)C(=O)O` [YC55], in data set [2], the “potency in disrupting the TRIP8b-HCN interaction” value is listed as “equal potency to NUCC5953”. In addition, the “dose-dependent analgesic effect / reversal of oxaliplatin-induced acute cold hypersensitivity” value in data set [1] (OIPN mice, i.t., 0.2, 1, 5 μg/mouse) was “dose-dependent analgesic effect”. For the same compound, the dose-dependent analgesic effect result is given as “dose-dependent analgesic effect” in data set [1] (OIPN mice, s.c., 2.5, 5 or 10 mg/kg) and “dose-dependent analgesic effect” with PTX rats. Also, in the data set on neuropathic rats, the antihyperalgesic effect result is “antihyperalgesic effect”. In the data set on mice, the “alteration in locomotor activity” value is “No alteration in locomotor activity”.
